Reference: patent US20250304700A1, “ANTI-BLOOD DENDRITIC CELL ANTIGEN 2 ANTIBODIES AND USES THEREOF” (Biogen MA Inc., priority 2012, published 2025)
Where “and” joins values, the source holds several entries; their conditions need not be identical. Equal values may be shown once.

Columns and labels:
[1] = system: BDCA2 on cynomolgus plasmacytoid dendritic cells; assay: Flow cytometric whole blood assay, BIIB059 binding to cynomolgus pDCs; parameters: species or system cynomolgus monkey; details: Alexa647 labeled BIIB059, on ice
BDCA2 on cynomolgus plasmacytoid dendritic cells, sequence (as listed by the source): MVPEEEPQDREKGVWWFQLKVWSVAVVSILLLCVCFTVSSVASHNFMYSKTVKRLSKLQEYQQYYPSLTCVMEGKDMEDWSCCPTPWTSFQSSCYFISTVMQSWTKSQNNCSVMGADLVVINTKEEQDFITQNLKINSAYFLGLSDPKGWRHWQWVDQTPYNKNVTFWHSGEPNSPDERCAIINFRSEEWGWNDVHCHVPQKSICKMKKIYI
Method: Cynomolgus monkey (Toxikon, Inc, Bedford, MA) or human peripheral blood (Biogen Idec) were collected in sodium heparin collection tubes and maintained at room temperature. A FACS staining antibody cocktail for identifying pDCs was added to each whole blood aliquot, incorporating CD20, CD14, CD123 and HLA-DR antibodies. […] Blood was incubated on ice, protected from light, for 30 min. After 30 min., each 500 μL aliquot of whole blood (cyno) or 100 μL (human) was treated with 10 mL (cyno) or 2 mL (human) of 1× Easy Lyse Buffer (Leinco Technologies) that had been incubated at 37° C. for at least one hour. After a 10-15 min. incubation at room temperature, samples were centrifuged at 1400 rpm for 5 min. The supernatant was decanted, leaving only a pellet of white blood cells (WBC). Each WBC pellet was washed with 5 mL of FACS buffer (1% BSA+0.002% NaAzide+1 mM CaCl2)+1 mM MgCl2 in PBS), and centrifuged at 1400 rpm for 5 min. The supernatant was decanted, and each WBC pellet was resuspended in 200 μL of FACS buffer and transferred to a 96-well round bottom plate (Fisher Scientific). The plate was centrifuged at 1400 rpm for 5 min. The supernatant was dumped out of the plate, and each WBC pellet was washed with 200 μL of FACS buffer. […] Each WBC pellet was resuspended in 250 μL of FACS buffer and fluorescence intensity measured on a LSRII 4-color FACS machine. […]

surface rat Clec4b2 = assay: Direct FACS binding to surface rat Clec4b2; details: 293E cells co-transfected with rat Clec4b2/FcεRIγ
surface rat Clec4b2, sequence (as listed by the source): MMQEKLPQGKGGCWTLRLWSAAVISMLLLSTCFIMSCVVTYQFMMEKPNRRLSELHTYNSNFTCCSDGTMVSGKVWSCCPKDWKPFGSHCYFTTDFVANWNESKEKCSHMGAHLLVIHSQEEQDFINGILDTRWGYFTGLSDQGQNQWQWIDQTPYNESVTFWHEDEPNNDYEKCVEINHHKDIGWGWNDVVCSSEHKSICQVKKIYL
surface rat Clec4b2, sequence (P20411 19-86 partner): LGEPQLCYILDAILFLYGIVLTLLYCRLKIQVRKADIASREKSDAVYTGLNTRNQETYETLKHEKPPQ
Source text: To determine whether the lead hu24F4 H4/L1 C95A mAb was capable of binding to surface rat Clec4b2, 293E cells were transiently co-transfected with an EGFP reporter expression vector (pEAG1458) and either human BDCA2/FcεRIγ vectors (pEAG2420 and pEAG2413) or rat Clec4b2/FcεRIγ vectors (pCN834 and pCN844) at 1:1:1 molar ratios. At 3 days post-transfection cells were harvested and stained with the lead hu24F4 H4/L1 C95A mAb in a dilution titration direct FACS binding assay, gating on live EGFP-positive cells.

[2] = system: TLR9-induced cytokines and chemokines by purified pDCs; assay: ELISA/multiplex of cytokines from CpG-A stimulated purified pDCs; assay type: cell-based, human
Method: Shown in FIG. 17 are the amounts of secreted IFNα and IL-6 measured from a representative donor of three tested healthy donors.
BDCA2 ligation suppresses the ability of pDCs to produce type I IFNs in response to TLR ligands (see FIG. 16). […] Specifically, pDCs from human healthy donors were isolated using a two-step magnetic bead separation procedure (MACS kit, Miltenyi Biotec). […] The plates containing pDCs were incubated for 18 hours at 37° C. and supernatants collected for use in ELISA or multiplex assays to measure concentrations of inflammatory cytokines and chemokines.

BDCA2 receptor on pDCs = assay: BDCA2 and bound BIIB059 on pDC surface after dosing cynomolgus monkeys; assay type: in vivo, cynomolgus monkey
Source text: At the same time point (1 hr), some free BDCA2 was observed (13%, 74%, 72% of baseline MFI).
EC10-50-90 curves were generated in GraphPad Prism software using a four-parameter fit.

[3] = system: Sm/RNP immune complexes-induced cytokines by pDCs; assay: Cytokines from Sm/RNP immune complex stimulated purified pDCs; assay type: cell-based, human; details: 10 μg/mL BIIB059, 18 hours
Method: Specifically, Sm/RNP immune complexes (IC) were pre-formed by mixing sm-RNP from calf thymus and anti-RNP antibodies purified form sera of SLE patients for 1 h in serum-free medium. pDCs from human healthy donors were isolated using a two-step magnetic bead separation procedure (MACS kit, Miltenyi Biotec). […] The plates containing pDCs were incubated for 18 hours at 37° C. and supernatants collected for use in ELISA or multiplex assays to measure concentrations of inflammatory cytokines and chemokines.

[4] = system: type I IFN subtype transcription in pDCs; assay: qPCR of type I IFN subtypes in Sm/RNP IC stimulated pDCs; assay type: cell-based, human; details: 10 μg/mL BIIB059, 16 hours
Method: Sm/RNP immune complexes (IC) were pre-formed by mixing sm-RNP from calf thymus and anti-RNP antibodies purified from sera of SLE patients for 30 minutes in serum-free medium. pDCs from human healthy donors were isolated using a two-step magnetic bead separation procedure (MACS kit, Miltenyi Biotec). […] The plates containing pDC were incubated for 16 hours at 37° C. and 5% CO2. pDC cells were collected and RNA from pDC was isolated for evaluation in qPCR reaction.

[5] = system: CD62L on the surface of human pDCs; assay: CD62L surface expression on pDCs by flow cytometry; assay type: cell-based; details: whole blood, 1 hour at 37° C., no stimulation
Method: The MFI of CD62L was determined by gating on pDCs as defined by CD14−, CD20−, HLA-DR+ and CD123+.
Metalloproteinase are known to induce CD62L shedding from the surface of immune cells. […] The surface expression of CD62L was assayed by flow cytometry. GM6001 inhibited the BIIB059-mediated down-modulation CD62L in a dose dependent manner (FIG. 45).

[6] = 5 μM CPG-A, increasing concentrations of BIIB059

Question: What does the source list for “BIIB059: humanized IgG1 anti-BDCA2 antibody, mature heavy chain SEQ ID NO: 4 and mature light chain SEQ ID NO: 3”?
Answer: EC50 of binding to pDCs [1]: 1-2 μg/mL; binding to surface rat Clec4b2 (surface rat Clec4b2): no binding to surface rat Clec4b2 was detected; TLR9-induced IFNα, TNFα, IL-6, CCL3, CCL4, CCL5 ([2]; 1 μM CPG-A, 10 μg/mL antibody, 18 hours): potently inhibited; IFNα production [2, 6]: potently inhibited; IL-6 production [2, 6]: greatly reduced; ability to inhibit CPG-A-induced IFNα by pDCs ([2]; BIIB059 compared with 24F4A-Agly): undistinguishable; BIIB059 on the pDC surface (BDCA2 receptor on pDCs; IV 10 mg/kg or 1 mg/kg, from 1 hour post injection): no BIIB059 was detected on the surface; free BDCA2 (BIIB059-A647 staining) (BDCA2 receptor on pDCs; IV 10 mg/kg or 1 mg/kg, through 38 days, except monkey 5): no free BDCA2; EC10 (ug/mL), internalization of BDCA2 (BDCA2 receptor on pDCs; IV 10 mg/kg, monkeys 3, 8, 10, 10 mg/kg): 0.100 µg/mL and 0.095 µg/mL and 0.114 µg/mL; free BDCA2 receptor over time (BDCA2 receptor on pDCs; SC 0.2 mg/kg): no free BDCA2 receptor was detected until day 14; BIIB059 on the pDC surface (BDCA2 receptor on pDCs; SC 0.2 mg/kg, at 1 hour, disappeared by 6 hours): briefly observed on the surface of pDCs; EC10 (ug/mL), Mean (BDCA2 receptor on pDCs; mean of all dosed monkeys): 0.064 µg/mL; EC90 (ug/mL), Mean (BDCA2 receptor on pDCs; mean of all dosed monkeys): 0.359 µg/mL; Sm/RNP immune complexes-induced IFNα, TNFα and IL-6 [3]: potently inhibited; chemokines induced by Sm/RNP immune complexes (CCL3, CCL4) [3]: also inhibited; transcript level of type I IFN subtypes [4]: inhibited the transcript level of all type I IFN subtypes tested; CD62L expression on the surface of pDCs [5]: dose-dependent decrease
